Inhibition of growth and Activity data for 1 compound are collected here from ChEMBL document CHEMBL4321825, “Discovery of a Series of 5-Azaquinazolines as Orally Efficacious IRAK4 Inhibitors Targeting MyD88L265P Mutant Diffuse Large B Cell Lymphoma” (J Med Chem, 2019).

Each structure is given as a SMILES string. The source made the active and inactive calls. No cut-off for these calls is given here.

In test [1] the test system is OCI-Ly10. Briefly: Growth inhibition of human OCI-LY10 cells at 4.2 nM incubated for 3 days by Alamar blue dye based fluorescence assay (reference value: 3%). The format is functional. To be noted: OCI-Ly10, 72 h, read-out: GI. In general terms: Alamar Blue is a resazurin reagent that responds to reducing activity.
Test [2] relates to OCI-LY19. Briefly: Growth inhibition of human OCI-LY19 cells at 42 nM incubated for 3 days by Alamar blue dye based fluorescence assay (reference value: 3%). The test is classed as functional. As to conditions: OCI-LY19, 72 h, read-out: GI.
In test [3] the test system is OCI-Ly10. Kind of test: Growth inhibition of human OCI-LY10 cells at 42 nM incubated for 3 days by Alamar blue dye based fluorescence assay (reference value: 3%). To be noted: OCI-Ly10, 72 h, read-out: GI. The format is functional.
Test [4] relates to OCI-LY19. Briefly: Growth inhibition of human OCI-LY19 cells at 2.1 nM incubated for 3 days by Alamar blue dye based fluorescence assay (reference value: 3%). The test is classed as functional. As to conditions: OCI-LY19, 72 h, read-out: GI.
For test [5], the system named is OCI-LY19. Briefly: Growth inhibition of human OCI-LY19 cells at 0.3 nM incubated for 3 days by Alamar blue dye based fluorescence assay (reference value: 3%). To be noted: OCI-LY19, 72 h, read-out: GI. The format is functional.
Test [6] relates to OCI-Ly10. Kind of test: Growth inhibition of human OCI-LY10 cells at 10 nM incubated for 3 days by Alamar blue dye based fluorescence assay (reference value: 3%). The format is functional. To be noted: OCI-Ly10, 72 h, read-out: GI.
In test [7] the test system is OCI-LY19. Kind of test: Growth inhibition of human OCI-LY19 cells at 10 nM incubated for 3 days by Alamar blue dye based fluorescence assay (reference value: 3%). The test is classed as functional. As to conditions: OCI-LY19, 72 h, read-out: GI.
For test [8], the system named is OCI-LY19. Kind of test: Growth inhibition of human OCI-LY19 cells at 4.2 nM incubated for 3 days by Alamar blue dye based fluorescence assay (reference value: 3%). The format is functional. As to conditions: OCI-LY19, 72 h, read-out: GI.
In test [9] the test system is OCI-Ly10. Briefly: Growth inhibition of human OCI-LY10 cells at 2.1 nM incubated for 3 days by Alamar blue dye based fluorescence assay (reference value: 3%). The format is functional. As to conditions: OCI-Ly10, 72 h, read-out: GI.
Test [10] deals with OCI-Ly10. Kind of test: Antitumor activity against human OCI-LY10 cells xenografted in CB.17 SCID mouse assessed as induction of tumor stasis at 12 mg/kg, po QD dosed 34 days after tumor cell inoculation. The test is classed as functional, organism-based. On the technique in general: A xenograft is tissue or cells of one species grown in another, often human tumour cells in immunodeficient mice.

The subject of test [11] is OCI-Ly10. Kind of test: Growth inhibition of human OCI-LY10 cells at 0.3 nM incubated for 3 days by Alamar blue dye based fluorescence assay (reference value: 3%). The format is functional. To be noted: OCI-Ly10, 72 h, read-out: GI.

As for `C=CC(=O)N1CCC[C@@H](n2nc(-c3ccc(Oc4ccccc4)cc3)c3c(N)ncnc32)C1` [IBRUTINIB], the figures for the inhibition of growth at 0.0042 µM with OCI-Ly10 [1] and in the test on OCI-LY19 [8] were 60% and 6%, respectively. In addition, the figures for the inhibition of growth at 0.042 µM in the test with OCI-LY19 [2] and in the test with OCI-Ly10 [3] were 11% and 93%, respectively. The results for the inhibition of growth at 0.0021 µM in the test with OCI-LY19 [4] and in the test on OCI-Ly10 [9] were 7% and 36%, respectively. Further, the inhibition of growth at 0.0003 µM in the test with OCI-LY19 [5] came to 3%; in the test with OCI-Ly10 [11] it was 5%. Further, the inhibition of growth at 0.01 µM in the test with OCI-Ly10 [6] is 83%; with OCI-LY19 [7], 7%. Moreover, the outcome in the test on OCI-Ly10 [10] was Active.
